Drawing on US8258138B2, “Potassium channel blockers” (Xention Limited, priority 2008, dated 2012), this text covers inhibition for 15 compounds.

One test has as its target T1, human Kv1.3 (Homo sapiens, UniProt P22001).
T1 construct: expressed in transfected cells; host or cells: stably transfected cells grown in medium for CHO cells
The test can be described thus: Kv1.3 Autopatch electrophysiology (whole cell patch-clamp, inhibition of charge movement). The test is classed as cell-based. Conditions: compound at 1 μM; cells stably transfected with human Kv1.3; room temperature; total charge during step to +30 mV relative to control; read-out: hKv1.3 % inh. As to the method:
Kv1.3 Autopatch Electrophysiology Method
Compounds were tested on these cells using the AutoPatch technology in whole cell mode.
The external bathing solution contained (in mM): 150 NaCl, 10 KCl, 1 MgCl2, 3 CaCl2, 10 HEPES, pH 7.4 with NaOH. Patch pipettes were filled with an electrode solution of composition (in mM): 100 K-Gluconate, 20 KCl, 1 MgCl2, 1 CaCl2, 10 HEPES, 11 EGTA, 5 ATP-Na2, 2 Glutathione pH 7.2 with KOH.
Compounds were dissolved in DMSO (100%) and made up in the external bather at a concentration of 1 μM immediately prior to use. All experiments were conducted at room temperature.
A cell suspension (10 ml), with a density of 6×10^6 cells, was aliquoted into a 15 ml centrifuge tube and stored at 4° C. before use. Prior to use a tube was taken and centrifuged at 1000 rpm for 4 mins at room temperature. The supernatant was then discarded, leaving a cell pellet at the bottom of the tube. The pellet was then resuspended using 1 ml of cold (4° C.), filtered (0.22 μm), 0.05% BSA/bather solution (0.05 g BSA/100 ml bather). The bottom of the tube was manually agitated followed by gentle tituration. The cell suspension was then placed in the AutoPatch™ temperature controlled cell-hotel at 14° C. and regularly titurated.
A length of Teflon capillary tubing was dipped into the cell suspension solution, and a column of fluid was taken up by negative pressure. The column of fluid was in electrically connectivity with a Ag/AgCl reference electrode. Borosilicate glass patch pipettes (from 1.5 mm OD, thin-walled filamented, GC150-TF capillary glass, Harvard) were pulled using a DMZ pipette puller (Zeitz Instruments), and were back-filled using the internal pipette solution, being careful that no bubbles remained at the tip or in the body of the pipette. Patch pipettes typically had resistances of 2.5-3.5 MΩ. Once filled, the pipette tip and a proportion of the shaft (˜15 mm) were dipped into Sigmacote (Sigma). The recording pipettes were placed in a multiwell array and mounted on the AutoPatch™ machine. Automated patch-clamping and drug-application was initiated by the operator, but thereafter AutoPatch.exe continued the experiment providing that pre-set conditions and criteria were satisfied.
Whole cell patch-clamp recordings were made using the AutoPatch™ rig, which incorporated an EPC9 or EPC10 amplifier (HEKA, Germany) under control of Pulse software (v8.54 or v8.76, HEKA, Germany), a cell applicator, automated drug application system (DAS), valve controller (VF1) and a suction device all at room temperature. This equipment was completely under the control of AutoPatch.exe and operator intervention was only made when there was a requirement to refill the bather reservoirs or to prevent the loss of a cell due to a technical error.
Cells were continuously perfused with external solution at a flow rate of ˜2 ml/minute.
Electrophysiology voltage-step protocols and analysis of data was performed as follows. Data were sampled at 5 kHz, and filtered with a −3 dB bandwidth of 2.5 kHz. Cells were held at a voltage of −80 mV. Currents were evoked by a voltage step to +30 mV for 500 ms in duration applied every 15 s. Online analysis of the hKv1.3 current during the application of compounds was performed by the Pulse (v8.54 or v8.76, HEKA, Germany), Excel (Microsoft, USA) and AutoPatch™ software, with the total charge measured during the whole of voltage step. Inhibition of charge movement in the presence of drug was calculated relative to control.

A further test concerns the target hKv1.5 (Homo sapiens, UniProt P22460). The experiment in a line: Kv1.5 Autopatch electrophysiology (whole cell patch-clamp). The class given is cell-based. The conditions noted are these: compound at 1 μM; room temperature (22-24° C.); total charge during step to 0 mV; read-out: hKv1.5 % inh. Here is the method:
Kv1.5 Autopatch Electrophysiology Method
The external bathing solution contained (in mM): 150 NaCl, 10 KCl, […], 3 MgCl2, 1 CaCl2, 10 HEPES, pH 7.4. Patch pipettes were filled with an electrode solution of composition (in mM): 160 KCl, 0.5 MgCl2, 10 HEPES, 1 EGTA, pH 7.4 with KOH.
Compounds were dissolved in DMSO (100%) and made up in the external bather at a concentration of 1 μM. All experiments were conducted at room temperature (22-24° C.).
A cell suspension (10 ml), with a density of 100,000 cells/ml, was aliquoted into a 15 ml centrifuge tube and transferred to an incubator (37° C., 5% CO2) for approximately one hour before use. Following 60 min incubation, a tube was taken and centrifuged at 1000 rpm for 4 mins at room temperature. 9.5 ml supernatant was thence discarded, leaving a cell pellet at the bottom of the tube. The pellet was then resuspended using 100 μl of cold (4° C.), filtered (0.22 μm), 0.2% BSA/bather solution (0.02 g BSA/10 ml bather). The bottom of the tube was manually agitated gently until the solution became cloudy with cells. The 100 μl cell resuspension solution was then stored on the bench at 4° C. (using a Peltier-based temperature control device) until used.
A length of capillary glass (1B150F-4, WPI) was dipped into the cell suspension solution, such that ˜3 cm column of fluid was taken up by capillary action. A Ag/AgCl wire was dropped into the non-dipped end of the capillary also. The outside of the solution-filled end of the capillary was then dried and the capillary was loaded into the AutoPatch™.
Borosilicate glass patch pipettes (from 1.5 mm OD, thin-walled filamented, GC150-TF capillary glass, Harvard) were pulled using a DMZ pipette puller (Zeitz Instruments), and were back-filled using the internal pipette solution, being careful that no bubbles remain at the tip or in the body of the pipette. Patch pipettes typically had resistances of 2.3-3.5 MΩ. Once filled, the pipette tip and a proportion of the shaft (˜15 mm) were dipped into Sigmacote (Sigma). The recording pipette was then loaded into the AutoPatch™ Automated patch-clamping was initiated by the operator, but thereafter AutoPatch.exe continued the experiment providing that pre-set conditions and criteria were satisfied.
Whole cell patch-clamp recordings were made using the AutoPatch™ rig, which incorporated an EPC9 amplifier (HEKA, Germany) under control of Pulse software (v8.54, HEKA, Germany), a motion controller with 2 translators (Newport, UK), valve controller (VF1) and a c-level suction device all at room temperature (22-24° C.). This equipment was completely under the control of AutoPatch.exe and operator intervention was only made when there was a requirement to refill the drug reservoirs or to prevent the loss of a cell due to a technical error. Cells with an Rseries greater than 18 MΩ were discounted from the experiment.
Qualification stages prior to perfusion and drug application ensured that the observed current met the criteria for the experiment. Only those cells with an IK>500 pA were used for experiments. Cells were continuously perfused with external solution at a flow rate of 1.8-2 ml/minute. […] Online analysis of the hKv1.5 current during the application of compounds was performed by the AutoPatch™ software. Voltage-step protocols and analysis of data was performed as described for conventional electrophysiology.
Electrophysiology voltage-step protocols and analysis of data was performed as follows. Data was sampled at 5 kHz, and filtered with a −3 dB bandwidth of 2.5 kHz. Cells were held at a voltage of −80 mV. Currents were evoked to a voltage step for 1000 ms in duration at 0 mV every 5 s. Currents were analysed using Pulsefit software (v8.54, HEKA, Germany), with the total charge measured during the whole of the voltage step. All other plots were produced using Igor Pro (WaveMetrics).
On the technique in general: In patch-clamp work, channel activity is measured electrically.

hKv1.5, sequence (P22460 whole entry): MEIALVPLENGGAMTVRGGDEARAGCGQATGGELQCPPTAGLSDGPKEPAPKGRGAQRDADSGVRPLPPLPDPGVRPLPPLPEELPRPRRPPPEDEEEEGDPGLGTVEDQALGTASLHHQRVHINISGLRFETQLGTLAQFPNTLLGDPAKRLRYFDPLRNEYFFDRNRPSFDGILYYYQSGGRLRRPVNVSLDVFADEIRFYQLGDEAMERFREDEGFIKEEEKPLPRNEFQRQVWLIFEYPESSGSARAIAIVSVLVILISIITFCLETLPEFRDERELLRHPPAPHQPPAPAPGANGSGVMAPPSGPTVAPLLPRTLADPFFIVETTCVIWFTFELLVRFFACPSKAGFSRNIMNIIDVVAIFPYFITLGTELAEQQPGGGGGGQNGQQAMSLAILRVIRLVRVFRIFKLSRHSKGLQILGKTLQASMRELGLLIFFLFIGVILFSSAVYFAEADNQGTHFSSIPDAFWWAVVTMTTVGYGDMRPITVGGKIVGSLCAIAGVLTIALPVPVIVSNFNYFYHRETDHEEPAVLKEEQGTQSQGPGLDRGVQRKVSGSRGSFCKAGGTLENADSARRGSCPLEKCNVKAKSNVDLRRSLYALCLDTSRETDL
T1 sequence (P22001 whole entry): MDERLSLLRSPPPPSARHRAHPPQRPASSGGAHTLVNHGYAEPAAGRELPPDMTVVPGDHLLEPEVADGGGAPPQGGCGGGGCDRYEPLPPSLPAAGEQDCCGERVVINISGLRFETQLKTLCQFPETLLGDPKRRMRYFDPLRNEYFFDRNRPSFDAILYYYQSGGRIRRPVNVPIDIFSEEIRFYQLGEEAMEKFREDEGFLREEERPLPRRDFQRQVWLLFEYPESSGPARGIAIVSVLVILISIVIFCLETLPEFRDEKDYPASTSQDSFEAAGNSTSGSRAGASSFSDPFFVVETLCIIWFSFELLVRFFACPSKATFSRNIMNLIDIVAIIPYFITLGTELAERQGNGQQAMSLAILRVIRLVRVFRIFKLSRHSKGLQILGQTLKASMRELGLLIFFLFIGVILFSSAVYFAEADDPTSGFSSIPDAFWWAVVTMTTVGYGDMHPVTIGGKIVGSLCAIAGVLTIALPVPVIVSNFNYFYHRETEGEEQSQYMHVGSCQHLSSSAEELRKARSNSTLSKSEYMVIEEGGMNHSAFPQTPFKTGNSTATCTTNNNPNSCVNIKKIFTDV

As to `Cn1cnc(S(=O)(=O)N(Cc2ccccc2)c2ccc(C(=O)N3CCN(c4ccccc4)CC3)cc2F)c1` [Example 50, 1-Methyl-1H-imidazole-4-sulfonic acid benzyl-[2-fluoro-4-(4-phenyl-piperazine-1-carbonyl)-phenyl]-amide], the inhibition at 1 µM on human Kv1.3 is 69%; at hKv1.5, 56.8%.
The like results for `CN1CCN(C(=O)c2ccc(N(Cc3ccccc3)S(=O)(=O)c3ccn(C)n3)cc2)CC1c1ccccc1` (stereo not drawn) [Example 90, 1-Methyl-1H-pyrazole-3-sulfonic acid benzyl-[4-(4-methyl-3-phenyl-piperazine-1-carbonyl)-phenyl]-amide] were, in that order, 76% and 40.8%.
The like results for `N#Cc1ccccc1S(=O)(=O)N(Cc1ccccc1)c1ccc(C(=O)N2CCN(c3ccccc3)CC2)cc1` [Example 24, N-Benzyl-2-cyano-N-[4-(4-phenyl-piperazine-1-carbonyl)-phenyl]-benzenesulfonamide] were, in that order, 84% and 71.9%.
In the same order, the values of `CC1(C)CCc2cc(S(=O)(=O)N(Cc3ccccc3)c3ccc(C(=O)N4CCN(c5ccccc5)CC4)cc3)ccc2O1` [Example 39, 2,2-Dimethyl-chroman-6-sulfonic acid benzyl-[4-(4-phenyl-piperazine-1-carbonyl)-phenyl]-amide] are 47% and 58.9%.
For the compound `Cc1cc(N(Cc2ccccc2)S(=O)(=O)c2ccccc2)ccc1C(=O)N1CCN(c2ccccc2)CC1` [Example 52, N-Benzyl-N-[3-methyl-4-(4-phenyl-piperazine-1-carbonyl)-phenyl]-benzenesulfonamide], the inhibition at 1 µM was 67% on human Kv1.3 and 93.6% at hKv1.5.
The like results for `Cc1ccc(S(=O)(=O)N(Cc2ccccc2)c2ccc(C(=O)N3CCN(c4ccccc4)CC3)cc2)cc1` [Example 16, N-Benzyl-4-methyl-N-[4-(4-phenyl-piperazine-1-carbonyl)-phenyl]-benzenesulfonamide] were, in that order, 77% and 48.1%.
As for `Cn1cnc(S(=O)(=O)N(Cc2ccccc2)c2ccc(C(=O)N3CCOC(c4ccccc4)C3)cc2F)c1` (stereo not drawn) [Example 68, 1-Methyl-1H-imidazole-4-sulfonic acid benzyl-[2-fluoro-4-(2-phenyl-morpholine-4-carbonyl)-phenyl]-amide], the inhibition at 1 µM was 90% on human Kv1.3 and 62.8% on hKv1.5.
On to `Cn1cnc(S(=O)(=O)N(Cc2ccc(F)cc2)c2ccc(C(=O)N3CCOC(c4ccccc4)C3)cc2)c1` (stereo not drawn) [Example 66, 1-Methyl-1H-imidazole-4-sulfonic acid (4-fluoro-benzyl)-[4-(2-phenyl-morpholine-4-carbonyl)-phenyl]-amide], for which the inhibition at 1 µM at human Kv1.3 worked out at 55%; on hKv1.5, 69%.
Take `N#Cc1cccc(S(=O)(=O)N(Cc2ccccc2)c2ccc(C(=O)N3CCN(c4ccccc4)CC3)cc2)c1` [Example 23, N-Benzyl-3-cyano-N-[4-(4-phenyl-piperazine-1-carbonyl)-phenyl]-benzenesulfonamide]: the inhibition at 1 µM came out at 79% at human Kv1.3 and 93.1% on hKv1.5.
Take `Cc1cc(C(=O)N2CCN(c3ccccc3)CC2)ccc1N(Cc1ccccc1)S(=O)(=O)c1cn(C)cn1` [Example 49, 1-Methyl-1H-imidazole-4-sulfonic acid benzyl-[2-methyl-4-(4-phenyl-piperazine-1-carbonyl)-phenyl]-amide]: the inhibition at 1 µM on human Kv1.3 came out at 76%; at hKv1.5, 50%.
In the same order, the values of `O=C(c1ccc(N(Cc2ccccc2)S(=O)(=O)c2ccccc2)c(F)c1)N1CCN(c2ccccc2)CC1` [Example 53, N-Benzyl-N-[2-fluoro-4-(4-phenyl-piperazine-1-carbonyl)-phenyl]-benzenesulfonamide] are 42% and 93.8%.
In the same order, the values of `COc1ccccc1CN(c1ccc(C(=O)N2CCN(c3ccccc3)CC2)cc1)S(=O)(=O)c1ccccc1` [Example 32, N-(2-Methoxy-benzyl)-N-[4-(4-phenyl-piperazine-1-carbonyl)-phenyl]-benzenesulfonamide] are 68% and 44.2%.
Regarding `O=C(c1ccc(N(Cc2ccccc2)S(=O)(=O)c2cc(Cl)cc(Cl)c2)cc1)N1CCN(c2ccccc2)CC1` [Example 29, N-Benzyl-3,5-dichloro-N-[4-(4-phenyl-piperazine-1-carbonyl)-phenyl]-benzenesulfonamide], the inhibition at 1 µM is 70% at human Kv1.3 and 75.3% at hKv1.5.
In the same order, the values of `O=C(c1ccc(N(Cc2ccc(Cl)cc2)S(=O)(=O)c2ccccc2)cc1)N1CCN(c2ccccc2)CC1` [Example 1, N-(4-Chloro-benzyl)-N-[4-(4-phenyl-piperazine-1-carbonyl)-phenyl]-benzenesulfonamide] are 91% and 94%.
The like results for `Cn1cnc(S(=O)(=O)N(Cc2cccc(F)c2)c2ccc(C(=O)N3CCN(c4ccccc4)CC3)cc2)c1` [Example 44, 1-Methyl-1H-imidazole-4-sulfonic acid (3-fluoro-benzyl)-[4-(4-phenyl-piperazine-1-carbonyl)-phenyl]-amide] were, in that order, 76% and 43.6%.
